Measured values: ChEMBL document CHEMBL3596167, “Branched -d-mannopyranosides: a new class of potent FimH antagonists” (Medchemcomm, 2014)
Calls of active or inactive are those of the source. The rule behind the calls is not given here.

What was measured:
HepG2 = assay: Cytotoxicity against human HepG2 cells at 1 to 10 uM after 24 hrs by CellTiter 96 aqueous one solution cell proliferation assay; format: cell-based; conditions: hepg2, 24 h
[1] = biological target: Type 1 fimbrin D-mannose specific adhesin (Escherichia coli K-12) (UniProt P08191); assay: Displacement of TM-PAA polymer from Escherichia coli FimH-CRD-Th-6-His expressed in Escherichia coli HM125 by competitive binding assay relative to heptyl alpha-D-mannopyranoside
[2] = Solubility of the compound in DMSO at 10 uM; format: physicochemical
[3] = biological target: T1, Type 1 fimbrin D-mannose specific adhesin (Escherichia coli K-12, UniProt P08191); assay: Displacement of TM-PAA polymer from Escherichia coli FimH-CRD-Th-6-His expressed in Escherichia coli HM125 by competitive binding assay
[4] = biological target: Type 1 fimbrin D-mannose specific adhesin (Escherichia coli K-12) (UniProt P08191); assay: Displacement of TM-PAA polymer from Escherichia coli FimH-CRD-Th-6-His expressed in Escherichia coli HM125 at <1 uM by competitive binding assay
[5] = biological target: Type 1 fimbrin D-mannose specific adhesin (Escherichia coli K-12) (UniProt P08191); assay: Inhibition of Escherichia coli FimH relative to methyl alpha-D-mannopyranoside
[6] = biological target: T1, Type 1 fimbrin D-mannose specific adhesin; assay: Binding affinity to Escherichia coli FimH
[7] = biological target: Type 1 fimbrin D-mannose specific adhesin (Escherichia coli K-12) (UniProt P08191); assay: Inhibition of Escherichia coli FimH relative to heptyl alpha-D-mannopyranoside

Chain of Type 1 fimbrin D-mannose specific adhesin (Escherichia coli K-12) (P08191 whole entry): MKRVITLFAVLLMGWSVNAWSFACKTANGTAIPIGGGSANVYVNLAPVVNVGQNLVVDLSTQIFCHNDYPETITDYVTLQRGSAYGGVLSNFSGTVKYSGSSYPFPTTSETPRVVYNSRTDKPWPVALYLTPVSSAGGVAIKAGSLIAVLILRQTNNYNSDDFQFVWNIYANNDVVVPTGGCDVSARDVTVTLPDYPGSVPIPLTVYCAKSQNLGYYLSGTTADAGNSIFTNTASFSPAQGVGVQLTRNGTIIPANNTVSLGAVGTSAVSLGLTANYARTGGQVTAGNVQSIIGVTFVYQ
T1 sequence (P08191 whole entry): as above

O=[N+]([O-])c1ccc(OCC(CO[C@H]2O[C@H](CO)[C@@H](O)[C@H](O)[C@@H]2O)Oc2ccc([N+](=O)[O-])cc2)cc1 (some centres not stated)
Activity (HepG2): Non-toxic

O=C(O)c1ccc(OCC(COc2cccc3ccccc23)O[C@H]2O[C@H](CO)[C@@H](O)[C@H](O)[C@@H]2O)cc1 (some centres not stated)
Ratio [1]: 0.17
Activity (HepG2): Non-toxic
solubility [2]: soluble
IC50 [3]: 346 nM

COC(=O)c1ccc2ccc(OCC(COc3ccc4ccc(OC)cc4c3)O[C@H]3O[C@H](CO)[C@@H](O)[C@H](O)[C@@H]3O)cc2c1 (some centres not stated)
Ratio [1]: 0.28
Activity (HepG2): Non-toxic
solubility [2]: soluble
IC50 [3]: 212 nM

CCCCCCCO[C@H]1O[C@H](CO)[C@@H](O)[C@H](O)[C@@H]1O
IC50 [3]: 58.9 nM

O=[N+]([O-])c1ccc(OCC(COc2ccc([N+](=O)[O-])cc2)O[C@H]2O[C@H](CO)[C@@H](O)[C@H](O)[C@@H]2O)cc1
Activity (HepG2): Non-toxic
IC50 [3]: 804 nM

COc1ccc2ccc(OCC(COc3ccc4ccc(OC)cc4c3)O[C@H]3O[C@H](CO)[C@@H](O)[C@H](O)[C@@H]3O)cc2c1
Activity (HepG2): Non-toxic
IC50 [3]: 593 nM

COc1ccc(OC(COc2ccc(O)cc2)CO[C@H]2O[C@H](CO)[C@@H](O)[C@H](O)[C@@H]2O)cc1 (some centres not stated)
Ratio [1]: 0.28
Activity (HepG2): Non-toxic
IC50 [3]: 208 nM

O=C(NCC(CNC(=O)c1ccc2ccccc2c1)O[C@H]1O[C@H](CO)[C@@H](O)[C@H](O)[C@@H]1O)c1ccc2ccccc2c1
IC50 [3]: 763 nM

O=C(Cc1ccc([N+](=O)[O-])cc1)NCC(CNC(=O)Cc1ccc([N+](=O)[O-])cc1)O[C@H]1O[C@H](CO)[C@@H](O)[C@H](O)[C@@H]1O
inhibition [4]: inactive

O=C(Cc1ccccc1)NCC(CNC(=O)Cc1ccccc1)O[C@H]1O[C@H](CO)[C@@H](O)[C@H](O)[C@@H]1O
inhibition [4]: inactive

CCOc1c(Nc2ccc(O[C@H]3O[C@H](CO)[C@@H](O)[C@H](O)[C@@H]3O)c(Cl)c2)c(=O)c1=O
Ratio [5]: 6900

OCC#Cc1ccc(O[C@H]2O[C@H](CO)[C@@H](O)[C@H](O)[C@@H]2O)cc1
Kd [6]: 0.65 nM
Ratio [7]: 7.7
Ratio [5]: 3380

O=C(O)Cc1ccc(OCC(COc2cccc3ccccc23)O[C@H]2O[C@H](CO)[C@@H](O)[C@H](O)[C@@H]2O)cc1 (some centres not stated)
Ratio [1]: 0.25
Activity (HepG2): Non-toxic
solubility [2]: soluble
IC50 [3]: 232 nM

O=C(NCC(CNC(=O)c1ccc[nH]1)O[C@H]1O[C@H](CO)[C@@H](O)[C@H](O)[C@@H]1O)c1ccc[nH]1
IC50 [3]: 607 nM

COc1ccc2ccc(OCC(COc3ccc4ccc(C(=O)O)cc4c3)O[C@H]3O[C@H](CO)[C@@H](O)[C@H](O)[C@@H]3O)cc2c1 (some centres not stated)
Ratio [1]: 0.37
Activity (HepG2): Non-toxic
solubility [2]: soluble
IC50 [3]: 158 nM

CCOCC(COc1ccc2ccccc2c1)O[C@H]1O[C@H](CO)[C@@H](O)[C@H](O)[C@@H]1O (some centres not stated)
Ratio [1]: 0.08
Activity (HepG2): Non-toxic
IC50 [3]: 746 nM

OC[C@H]1O[C@H](OCC(COc2ccc3ccccc3c2)Oc2ccc3ccccc3c2)[C@@H](O)[C@@H](O)[C@@H]1O (some centres not stated)
Activity (HepG2): Non-toxic
inhibition [4]: inactive

OC[C@H]1O[C@H](OC(COc2cccc3ccccc23)COc2cccc3ccccc23)[C@@H](O)[C@@H](O)[C@@H]1O
Activity (HepG2): Non-toxic

COc1ccc(OCC(COc2ccc(OC)cc2)O[C@H]2O[C@H](CO)[C@@H](O)[C@H](O)[C@@H]2O)cc1
Activity (HepG2): Non-toxic
inhibition [4]: inactive

OC[C@H]1O[C@H](OC(COc2ccc3ccccc3c2)COc2ccc3ccccc3c2)[C@@H](O)[C@@H](O)[C@@H]1O
Activity (HepG2): Non-toxic
inhibition [4]: inactive

N#Cc1ccc(C(=O)NCC(CNC(=O)c2ccc(C#N)cc2)O[C@H]2O[C@H](CO)[C@@H](O)[C@H](O)[C@@H]2O)cc1
IC50 [3]: 978 nM

OC[C@H]1O[C@H](OC(COc2ccccc2)COc2ccccc2)[C@@H](O)[C@@H](O)[C@@H]1O
Activity (HepG2): Non-toxic

OC[C@H]1OC(O)[C@@H](O)[C@@H](O)[C@@H]1O (stereo partly drawn) [D-MANNOSE]
Kd [6]: 2300 nM

O=[N+]([O-])c1ccc(CCO[C@H]2O[C@H](CO)[C@@H](O)[C@H](O)[C@@H]2O)cc1
Ratio [5]: 85

COc1ccc2ccc(OCC(CO[C@H]3O[C@H](CO)[C@@H](O)[C@H](O)[C@@H]3O)Oc3ccc4ccc(OC)cc4c3)cc2c1 (some centres not stated)
Activity (HepG2): Non-toxic
IC50 [3]: 875 nM

O=[N+]([O-])c1ccc(O[C@H]2O[C@H](CO)[C@@H](O)[C@H](O)[C@@H]2O)c(Cl)c1
Ratio [5]: 717

OC[C@H]1O[C@H](OCC(COc2cccc3ccccc23)Oc2cccc3ccccc23)[C@@H](O)[C@@H](O)[C@@H]1O (some centres not stated)
Activity (HepG2): Non-toxic
inhibition [4]: inactive
